Reference: patent US20230002324A1, “NAPHTHOQUINONE DERIVATIVES FOR TREATMENT OF OXIDATIVE STRESS DISORDERS” (PTC THERAPEUTICS, INC., priority 2019, published 2023)
Where two headings read alike, the source gives them in different places.

Legend:
CYP3A4 [1] = molecular target: T1, CYP3A4 (Homo sapiens, UniProt P08684); experiment: CYP450 Inhibition Assay 1 (pooled human liver microsomes, midazolam); format: in vitro ADME; settings: for IC50: HLM 0.05 mg/mL, midazolam 5 μM, 5 min; for CYP3A4 inhibition, in words: comment on Table 4
T1 construct: from tissue; host or cells: pooled human liver microsomes
Protocol: The CYP450 inhibition assay provides in vitro assessment of the inhibitory potential of the test compounds against cytochrome P450 enzymes. Selective substrates were incubated with pooled human liver microsomes (HLM) as single substrates. All assays employed 100 mM potassium phosphate buffer at pH 7.4.
The assays were performed in a 96-well PCR plate in a final volume of 140 μL at 37° C. Test compounds were evaluated at seven concentrations to obtain IC50 values, with a final concentration of 0.1% DMSO in the incubation (total organic solvent at 1% in the incubation). Reactions were initiated by the addition of NADPH. After the enzyme-specific incubation time had elapsed, an aliquot from that enzyme reaction was quenched in Acetonitrile with 0.2% Formic Acid. Supernatant from the quenched reactions was diluted with an equal volume of water, prior to analysis by LC-MS/MS.
All samples were analyzed on LC-MS/MS using an AB Sciex 6500+ instrument equipped with electrospray ionization source, coupled to a Shimadzu Nexera X2 system. Samples were separated using a Waters UPLC HSS T3, 1.8 μm column, 1×50 mm (catalog #186003535) at a flow rate of 200 μL/min. Injection volume was 2 μL.

[2] = system: Q7 cells (ST HDH Q7/7; immortalized mouse striatal cells); experiment: Q7 RSL3 challenge cell survival (rescue) assay; format: cell-based; settings: 18 h, read-out: Q7 RSL3 Survival EC50
Summary of the method: (§1)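 Q7 (33° C.) or NHF (37° C.) cells, 3,000/well, attached 5 h, then test compounds at varying final concentrations followed within 15 min by RSL3 (2 micromolar final); 0.3% DMSO. Assay medium identical to growth medium.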

[3] = system: normal human fibroblasts (NHF, GM21811); experiment: NHF GM21811 RSL3 challenge cell survival (rescue) assay; format: cell-based; settings: Fibroblast, 48 h, read-out: NHF GM21811 RSL3 Survival EC50
Summary of the method: as §1

[4] = system: Q7 cells (ST HDH Q7/7; immortalized mouse striatal cells); experiment: Q7 Cystine Deprivation cell survival (rescue) assay; format: cell-based; settings: 18 h, read-out: Q7 Cystine Deprivation Survival EC50
Summary of the method: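 Cells were seeded at 3,000/well and allowed to attach for 5 h at 33 °C. Wells were then washed twice with PBS and switched to cystine-free DMEM containing FBS, 4 mM L-glutamine, 1 mM pyruvate and 30 mg/L methionine to induce ferroptotic death. Compounds were scored for survival rescue.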

CYP3A4 [5] = molecular target: T1, CYP3A4; experiment: CYP450 Inhibition Assay 2 (pooled human liver microsomes, 5 concentrations); format: in vitro ADME; settings: Table 3; HLM 0.05 mg protein/mL, 10 min reaction
Protocol: In an alternative experimental design, test compounds were evaluated at 5 concentrations in a 96 well assay plate. Initial combination with pooled human liver microsomes (0.05 mg protein/mL) was followed by a 5 minute incubation. […] The assay plate was incubated for an additional 30 minutes before the reaction was initiated with the addition of NADPH. After 10 minutes of reaction time, the reaction was quenched and samples were analyzed in a similar manner as described above.

[6] = Q7 cells, RSL3 2 micromolar, Cell Titer Glo
[7] = NHF cells, RSL3 2 micromolar, Cell Titer Glo
[8] = Q7 cells, cystine-free medium, Cell Titer Glo, 50% relative viability vs Vitamin K2 (1 micromolar)

T1 sequence (P08684 whole entry): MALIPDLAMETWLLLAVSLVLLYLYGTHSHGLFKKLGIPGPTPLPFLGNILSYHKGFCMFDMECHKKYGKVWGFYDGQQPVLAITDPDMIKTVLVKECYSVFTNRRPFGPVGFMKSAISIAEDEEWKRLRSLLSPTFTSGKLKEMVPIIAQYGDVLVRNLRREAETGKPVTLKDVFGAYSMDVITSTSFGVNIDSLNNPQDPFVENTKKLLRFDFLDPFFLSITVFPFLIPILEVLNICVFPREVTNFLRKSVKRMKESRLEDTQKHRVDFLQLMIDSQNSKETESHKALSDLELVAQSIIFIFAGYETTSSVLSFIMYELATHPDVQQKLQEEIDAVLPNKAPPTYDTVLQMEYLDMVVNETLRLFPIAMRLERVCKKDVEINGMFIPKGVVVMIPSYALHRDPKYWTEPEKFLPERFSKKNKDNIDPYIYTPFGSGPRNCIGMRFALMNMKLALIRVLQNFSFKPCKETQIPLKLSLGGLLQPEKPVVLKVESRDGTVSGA

SMILES	IC50 (CYP3A4 [1]; Table 3)	EC50 [2, 6]	EC50 [3, 7]	other results
CC1=C(Cc2cccnc2)C(=O)c2ccccc2C1=O [Comparison Compound 1, reference compound]				IC50 (CYP3A4 [1]; Table 4 comparison): 0.421 µM; CYP3A4 inhibition, in words (CYP3A4 [1]): very potent inhibitor of CYP3A4
CC1=C(Cc2ccncc2)C(=O)c2ccccc2C1=O [Comparison Compound 2, reference compound]				IC50 (CYP3A4 [1]; Table 4 comparison): 1.07 µM; CYP3A4 inhibition, in words (CYP3A4 [1]): potent CYP3A4 inhibitor
CC1=C(Cc2ccc(C(F)(F)F)cn2)C(=O)c2ccccc2C1=O [Example 1, 2-methyl-3-((5-(trifluoromethyl)pyridin-2-yl)methyl)naphthalene-1,4-dione]	5.78 µM	< 0.05 µM	< 0.05 µM	EC50 [4, 8]: < 0.05 µM; IC50 (CYP3A4 [5]): 35.7 µM
CC1=C(Cc2ccccn2)C(=O)c2ccccc2C1=O [Example 23, 2-methyl-3-(pyridin-2-ylmethyl)naphthalene-1,4-dione]	22.8 µM			EC50 [4, 8]: < 0.05 µM; IC50 (CYP3A4 [5]): 12.7 µM
CCC1=C(Cc2ccc(C(F)(F)F)cn2)C(=O)c2ccccc2C1=O [Example 26, 2-ethyl-3-((5-(trifluoromethyl)pyridin-2-yl)methyl)naphthalene-1,4-dione]		< 0.05 µM	< 0.05 µM	EC50 [4, 8]: < 0.05 µM; IC50 (CYP3A4 [5]): 14.2 µM
CC(C)C1=C(Cc2ccc(C(F)(F)F)cn2)C(=O)c2ccccc2C1=O [Example 30, 2-isopropyl-3-((5-(trifluoromethyl)pyridin-2-yl)methyl)naphthalene-1,4-dione]				EC50 [3]: < 0.05 µM; EC50 [4]: < 0.05 µM; IC50 (CYP3A4 [5]): 10.3 µM
CCC1=C(Cc2ccc(C(F)(F)F)cn2)C(=O)c2c(F)ccc(F)c2C1=O [Example 55, 2-ethyl-5,8-difluoro-3-((5-(trifluoromethyl)pyridin-2-yl)methyl)naphthalene-1,4-dione]	3.68 µM			EC50 [2]: < 0.05 µM; EC50 [3]: < 0.05 µM
[2H]C([2H])([2H])C1=C(Cc2ccc(C(F)(F)F)cn2)C(=O)c2cc(F)cc(F)c2C1=O [Example 57, 5,7-difluoro-3-(methyl-d3)-2-((5-(trifluoromethyl)pyridin-2-yl)methyl)naphthalene-1,4-dione]	1.49 µM	< 0.05 µM		
CC1=C(Cc2ccc(C(F)(F)F)c(C#N)n2)C(=O)c2ccc(F)cc2C1=O [Example 70, 6-((6-fluoro-3-methyl-1,4-dioxo-1,4-dihydronaphthalen-2-yl)methyl)-3-(trifluoromethyl)picolinonitrile]	4.14 µM	< 0.05 µM	< 0.05 µM	
CC1=C(Cc2ccc(C(F)(F)F)c(C#N)n2)C(=O)c2c(F)ccc(F)c2C1=O [Example 79, 6-((5,8-difluoro-3-methyl-1,4-dioxo-1,4-dihydronaphthalen-2-yl)methyl)-3-(trifluoromethyl)picolinonitrile]	2.4 µM	< 0.05 µM	< 0.05 µM	

Now from value to compound, other results behind:

IC50 (CYP3A4 [1]; Table 3)	SMILES	EC50 [2, 6]	EC50 [3, 7]	other results
11 µM	CCC1=C(Cc2ccc(C(F)(F)F)c(C#N)n2)C(=O)c2ccc(F)cc2C1=O [Example 81, 6-((3-ethyl-6-fluoro-1,4-dioxo-1,4-dihydronaphthalen-2-yl)methyl)-3-(trifluoromethyl)picolinonitrile]	< 0.05 µM	< 0.05 µM	
2.73 µM	CCC1=C(Cc2ccc(C(F)(F)F)c(C#N)n2)C(=O)c2c(F)ccc(F)c2C1=O [Example 83, 6-((3-ethyl-5,8-difluoro-1,4-dioxo-1,4-dihydronaphthalen-2-yl)methyl)-3-(trifluoromethyl)picolinonitrile]	< 0.05 µM		
1.56 µM	N#Cc1nc(CC2=C(C3CC3)C(=O)c3c(F)ccc(F)c3C2=O)ccc1C(F)(F)F [Example 84, 6-((3-cyclopropyl-5,8-difluoro-1,4-dioxo-1,4-dihydronaphthalen-2-yl)methyl)-3-(trifluoromethyl)picolinonitrile]	< 0.05 µM	< 0.05 µM	
6.66 µM	CCC1=C(Cc2ccc(C(F)(F)F)c(C#N)n2)C(=O)c2cc(F)cc(F)c2C1=O [Example 86, 6-((3-ethyl-5,7-difluoro-1,4-dioxo-1,4-dihydronaphthalen-2-yl)methyl)-3-(trifluoromethyl)picolinonitrile]	< 0.05 µM	< 0.05 µM	
1.3 µM	CC1=C(Cc2ccc(C(F)(F)F)cn2)C(=O)c2c(ccc(F)c2F)C1=O [Example 128, 5,6-difluoro-2-methyl-3-((5-(trifluoromethyl)pyridin-2-yl)methyl)naphthalene-1,4-dione]	< 0.05 µM		
